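96-well plates; 48 h exposure; 5 concentrations. Endpoints by linear interpolation between flanking doses. Not reached: highest tested concentration assigned. Here, GI50 denotes the concentration required for 50% inhibition of growth.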 The source made the active and inactive calls. Cut-off read from the data, not from the text of the source: active = GI50 up to about 1.1 µM and inactive = higher.
Key:
Test in all cases: inhibition of tumour cell growth, NCI panel, 48 h
PC-3 = tested on: PC-3
HT-29 = tested on: HT-29
MDA-MB-435 = tested on: MDA-MB-435
RXF 393 = tested on: RXF 393
M14 = tested on: M14
CAKI-1 = tested on: CAKI-1
SN12C = tested on: SN12C
SW-620 = tested on: SW-620
SK-MEL-5 = tested on: SK-MEL-5
SF-295 = tested on: SF-295
UACC-257 = tested on: UACC-257
MDA-N = tested on: MDA-N
Hs-578T = tested on: Hs-578T
MCF7 = tested on: MCF7
SK-OV-3 = tested on: SK-OV-3
TK-10 = tested on: TK-10
DU-145 = tested on: DU-145
NCI-H522 = tested on: NCI-H522
ACHN = tested on: ACHN
HL-60 = tested on: HL-60

Measured: GI50

COC(=O)C(CCC1C=CN(S(=O)(=O)c2ccc(C)cc2)C1)/N=C/c1ccccc1 (stereo not given)
inactive: PC-3 32.7 µM | HT-29 30.9 µM | MDA-MB-435 33.2 µM | RXF 393 75.5 µM | M14 42.7 µM | CAKI-1 87.3 µM | SN12C 35.5 µM | SW-620 41.1 µM | SK-MEL-5 22.2 µM | SF-295 41.1 µM | UACC-257 50 µM | MDA-N 38.3 µM | Hs-578T > 100 µM | MCF7 34.2 µM | SK-OV-3 80 µM | TK-10 83.2 µM | DU-145 43 µM | NCI-H522 34.4 µM | ACHN > 100 µM | HL-60 1.29 µM

C[n+]1c(-c2ccc(/C=N\N3CCN(/N=C/c4ccc(-c5cn6ccsc6[n+]5C)cc4)CC3)cc2)cn2ccsc21
inactive: PC-3 > 100 µM | HT-29 40.8 µM | MDA-MB-435 26.7 µM | RXF 393 27.3 µM | M14 44.8 µM | CAKI-1 34 µM | SN12C 35.2 µM | SW-620 32.1 µM | SK-MEL-5 22.8 µM | SF-295 28.6 µM | UACC-257 19.5 µM | MDA-N 25.7 µM | Hs-578T 19.2 µM | MCF7 29.9 µM | SK-OV-3 8.04 µM | TK-10 35.7 µM | DU-145 23.3 µM | NCI-H522 18.1 µM | ACHN 65.5 µM | HL-60 21.2 µM

CC(C)CSCC1OC(n2cnc3c(N)nccc32)C(O)C1O (stereo not given)
inactive: PC-3 > 100 µM | HT-29 > 100 µM | MDA-MB-435 > 100 µM | RXF 393 > 52 µM | M14 > 100 µM | CAKI-1 > 100 µM | SN12C > 100 µM | SW-620 > 100 µM | SK-MEL-5 43.8 µM | SF-295 > 100 µM | UACC-257 > 85.3 µM | MDA-N > 100 µM | Hs-578T > 72.1 µM | MCF7 > 100 µM | SK-OV-3 > 100 µM | TK-10 > 100 µM | DU-145 > 100 µM | NCI-H522 45.8 µM | ACHN > 100 µM | HL-60 > 100 µM

N#Cc1nc(CCC(c2nc(C#N)c(N)o2)N2C(=O)c3ccccc3C2=O)oc1N (stereo not given)
inactive: PC-3 > 100 µM | HT-29 > 100 µM | MDA-MB-435 > 100 µM | RXF 393 > 100 µM | M14 > 100 µM | CAKI-1 > 100 µM | SN12C > 100 µM | SW-620 > 100 µM | SK-MEL-5 > 100 µM | SF-295 > 100 µM | UACC-257 > 100 µM | MDA-N > 100 µM | Hs-578T > 100 µM | MCF7 > 100 µM | SK-OV-3 > 100 µM | TK-10 > 100 µM | DU-145 > 100 µM | NCI-H522 > 100 µM | ACHN > 100 µM | HL-60 > 100 µM

CC[C@@]12CCCN3CC[C@]4(c5cccc(OC)c5N(C(C)=O)[C@@H]4CC1)[C@H]32 [ASPIDOSPERMINE]
inactive: PC-3 43 µM | HT-29 21 µM | MDA-MB-435 38.3 µM | RXF 393 60.4 µM | M14 36.5 µM | CAKI-1 > 100 µM | SN12C > 100 µM | SW-620 > 100 µM | SK-MEL-5 44.3 µM | SF-295 46.6 µM | UACC-257 31.8 µM | MDA-N 34.6 µM | Hs-578T 23.9 µM | MCF7 63.1 µM | SK-OV-3 > 100 µM | TK-10 56.5 µM | DU-145 > 100 µM | NCI-H522 32.3 µM | ACHN > 100 µM | HL-60 20.7 µM

COc1ccc(/C(Nc2ccccc2)=C(\CCl)c2ccccc2)cc1OC
inactive: PC-3 39.4 µM | HT-29 34.9 µM | MDA-MB-435 32.8 µM | RXF 393 83.8 µM | M14 41.4 µM | CAKI-1 > 100 µM | SN12C 36.7 µM | SW-620 46.2 µM | SK-MEL-5 22.2 µM | SF-295 49.2 µM | UACC-257 29.2 µM | MDA-N 35.7 µM | Hs-578T > 100 µM | MCF7 26.4 µM | SK-OV-3 > 100 µM | TK-10 41.5 µM | DU-145 86.3 µM | NCI-H522 16.7 µM | ACHN 31.9 µM | HL-60 18.9 µM

CC[C@H](C)[C@H]1NC(=O)[C@@H](NC(=O)[C@@H](CC(C)C)N(C)C(=O)C2CCCN2C(=O)[C@H](C)O)[C@@H](C)OC(=O)[C@H](Cc2ccc(OC)cc2)N(C)C(=O)[C@@H]2CCCN2C(=O)[C@H](CCCCNC(=O)OCc2ccccc2)NC(=O)[C@H](C)C(=O)[C@H](C(C)C)OC(=O)C[C@@H]1O (stereo not given in full)
inactive: PC-3 3.93 µM | HT-29 3.37 µM | MDA-MB-435 5.86 µM | RXF 393 > 25 µM | M14 4.13 µM | CAKI-1 16.8 µM | SN12C 5.64 µM | SW-620 7.74 µM | SK-MEL-5 4.41 µM | SF-295 8.63 µM | UACC-257 2.49 µM | MDA-N 5.68 µM | Hs-578T 1.41 µM | MCF7 2.77 µM | SK-OV-3 7.69 µM | TK-10 6.97 µM | DU-145 9.84 µM | NCI-H522 3.37 µM | ACHN 20.1 µM | HL-60 > 25 µM

Source: ChEMBL document CHEMBL1201862, “PubChem BioAssay data set” (2004)
